Measured values as given in patent US20240383874A1, “BENZENE RING DERIVATIVE, AND COMPOSITION AND PHARMACEUTICAL USE THEREOF” (Xizang Haisco Pharmaceutical Co., Ltd., priority 2020, published 2024).
Structures can show the parent of a compound that is named as a salt.

Test system: 22RV1 cells
Experiment: Experiment 2 on inhibiting 22RV1 cell proliferation (7 days, CellTiter-Glo)
Assay type: cell-based
Conditions: Homo sapiens, 22Rv1, 168 h, 1% css-FBS phenol red-free medium, incubated with compound 7 days, read-out: IC50 values on proliferation inhibition of 22RV1 cells
Method: Prostate cancer cells 22RV1 were purchased from ATCC, the cell medium was RPMI 1640+10% FBS, and the cells were cultured in an incubator at 37° C. under 5% CO2. On day 1, the cells in an exponential phase were collected. With a 1% css-FBS phenol red-free medium, the cell suspension was adjusted to a corresponding concentration, plated at 2000 cells/well and incubated overnight. On day 2, compounds at different concentrations were added, and the plate was placed in the incubator and incubated for further 7 days. After the incubation was completed, according to operation instructions for a CellTiter-Glo kit (Promega, G7573), 50 μL of CTG solution, which was already pre-melted and equilibrated to room temperature, was added to each well, and the mixtures were uniformly mixed for 2 min using a microplate shaker. The plate was placed at room temperature for 10 min, and then fluorescence signal values were measured using a microplate reader (PHERAstar FSX). The results were processed according to formula (2), the survival rate of the compound at different concentrations was calculated, and the IC50 value of the compound with a survival rate of 50% was calculated using origin9.2 software with DoseResp function, wherein RLU compound was the readout of the treated group, and RLU control was the average value of the DMSO vehicle control group.

| IC50 [nM] | SMILES |
| --- | --- |
| 825 | Cc1ncsc1-c1ccc([C@H](C)NC(=O)[C@@H]2C[C@@H](O)CN2C(=O)[C@@H](NC(=O)CN2CCC(CN3CCN(c4nccc(COc5ccc(C(C)(C)c6cc(Cl)cc(C#N)c6)cc5)n4)CC3)CC2)C(C)(C)C)cc1 [Compound 51 trifluoroacetate, (2S,4R)-1-((S)-2-(2-(4-((4-(4-((4-(2-(3-chloro-5-cyanophenyl)propan-2-yl)phenoxy)methyl)pyrimidin-2-yl)piperazin-1-yl)methyl)piperidin-1-yl)acetamido)-3,3-dimethylbutanoyl)-4-hydroxy-N-((S)-1-(4-(4-methylthiazol-5-yl)phenyl)ethyl)pyrrolidine-2-carboxamide] |
| 956 | CC(C)(c1ccc(OCc2ccnc(N3CCN(C4CN(C5CCCN(c6ccc7c(c6)C(=O)N(C6CCC(=O)NC6=O)C7=O)C5)C4)CC3)n2)cc1)c1cc(Cl)cc(C#N)c1 (centres unmarked) [Compound 52 trifluoroacetate, 3-chloro-5-(2-(4-((2-(4-(1-(1-(2-(2,6-dioxopiperidin-3-yl)-1,3-dioxoisoindolin-5-yl)piperidin-3-yl)azetidin-3-yl)piperazin-1-yl)pyrimidin-4-yl)methoxy)phenyl)propan-2-yl)benzonitrile] |
| 623 | CC(C)(c1ccc(OCc2ccnc(N3CCN(C4CN(C5CC6(CCN(c7ccc8c(c7)C(=O)N(C7CCC(=O)NC7=O)C8=O)CC6)C5)C4)CC3)n2)cc1)c1cc(Cl)cc(C#N)c1 (centres unmarked) [Compound 53 trifluoroacetate, 3-chloro-5-(2-(4-((2-(4-(1-(7-(2-(2,6-dioxopiperidin-3-yl)-1,3-dioxoisoindolin-5-yl)-7-azaspiro[3.5]nonan-2-yl)azetidin-3-yl)piperazin-1-yl)pyrimidin-4-yl)methoxy)phenyl)propan-2-yl)benzonitrile] |
| 519 | CC(C)(c1ccc(OCc2ccnc(N3CCN(C4CN(C5CCN(c6ccc7c(c6)C(=O)N(C6CCC(=O)NC6=O)C7=O)C5)C4)CC3)n2)cc1)c1cc(Cl)cc(C#N)c1 (centres unmarked) [Compound 55 trifluoroacetate, 3-chloro-5-(2-(4-((2-(4-(1-(1-(2-(2,6-dioxopiperidin-3-yl)-1,3-dioxoisoindolin-5-yl)pyrrolidin-3-yl)azetidin-3-yl)piperazin-1-yl)pyrimidin-4-yl)methoxy)phenyl)propan-2-yl)benzonitrile] |
| 716 | CC(C)(c1ccc(OCc2ccnc(N3CCN(C4CN(CC5CCN(c6ccc7c(c6)C(=O)N(C6CCC(=O)NC6=O)C7=O)CC5)C4)CC3)n2)cc1)c1cc(Cl)cc(C#N)c1 (centres unmarked) [Compound 56 trifluoroacetate, 3-chloro-5-(2-(4-((2-(4-(1-((1-(2-(2,6-dioxopiperidin-3-yl)-1,3-dioxoisoindolin-5-yl)piperidin-4-yl)methyl)azetidin-3-yl)piperazin-1-yl)pyrimidin-4-yl)methoxy)phenyl)propan-2-yl)benzonitrile] |
| 687 | CC(C)(c1ccc(OCc2ccnc(N3CCN(C4CN(CC5CN(c6ccc7c(c6)C(=O)N(C6CCC(=O)NC6=O)C7=O)C5)C4)CC3)n2)cc1)c1cc(Cl)cc(C#N)c1 (centres unmarked) [Compound 57 trifluoroacetate, 3-chloro-5-(2-(4-((2-(4-(1-((1-(2-(2,6-dioxopiperidin-3-yl)-1,3-dioxoisoindolin-5-yl)azetidin-3-yl)methyl)azetidin-3-yl)piperazin-1-yl)pyrimidin-4-yl)methoxy)phenyl)propan-2-yl)benzonitrile] |
| 744 | CC(C)(c1ccc(OCc2ccnc(N3CCN(C4CN(CC5CCN(c6ccc7c(c6)C(=O)N(C6CCC(=O)NC6=O)C7=O)C5)C4)CC3)n2)cc1)c1cc(Cl)cc(C#N)c1 (centres unmarked) [Compound 58 trifluoroacetate, 3-chloro-5-(2-(4-((2-(4-(1-((1-(2-(2,6-dioxopiperidin-3-yl)-1,3-dioxoisoindolin-5-yl)pyrrolidin-3-yl)methyl)azetidin-3-yl)piperazin-1-yl)pyrimidin-4-yl)methoxy)phenyl)propan-2-yl)benzonitrile] |
| 647 | CC(C)(c1ccc(OCc2ccnc(N3CCN(C4CC5(CCN(C6CC7(CCN(c8ccc9c(c8)C(=O)N(C8CCC(=O)NC8=O)C9=O)CC7)C6)CC5)C4)CC3)n2)cc1)c1cc(Cl)cc(C#N)c1 (centres unmarked) [Compound 59 trifluoroacetate, 3-chloro-5-(2-(4-((2-(4-(7-(2-(2,6-dioxopiperidin-3-yl)-1,3-dioxoisoindolin-5-yl)-7,7′-diaza[2,7′-bispiro[3.5]nonan]-2′-yl)piperazin-1-yl)pyrimidin-4-yl)methoxy)phenyl)propan-2-yl)benzonitrile] |
| 866 | CC(C)(c1ccc(OCc2ccnc(N3CCN(C4CC5(CCN(CC6CCN(c7ccc8c(c7)C(=O)N(C7CCC(=O)NC7=O)C8=O)CC6)CC5)C4)CC3)n2)cc1)c1cc(Cl)cc(C#N)c1 (centres unmarked) [Compound 60 trifluoroacetate, 3-chloro-5-(2-(4-((2-(4-(7-((1-(2-(2,6-dioxopiperidin-3-yl)-1,3-dioxoisoindolin-5-yl)piperidin-4-yl)methyl)-7-azaspiro[3.5]nonan-2-yl)piperazin-1-yl)pyrimidin-4-yl)methoxy)phenyl)propan-2-yl)benzonitrile] |
| 632 | CC(C)(c1ccc(OCc2ccnc(N3CCN(C4CCN(CC5CN(c6ccc7c(c6)C(=O)N(C6CCC(=O)NC6=O)C7=O)C5)C4)CC3)n2)cc1)c1cc(Cl)cc(C#N)c1 (centres unmarked) [Compound 61 trifluoroacetate, 3-chloro-5-(2-(4-((2-(4-(1-((1-(2-(2,6-dioxopiperidin-3-yl)-1,3-dioxoisoindolin-5-yl)azetidin-3-yl)methyl)pyrrolidin-3-yl)piperazin-1-yl)pyrimidin-4-yl)methoxy)phenyl)propan-2-yl)benzonitrile] |
| 735 | CC(C)(c1ccc(OCc2ccnc(N3CCN(C4CCN(CC5CCN(c6ccc7c(c6)C(=O)N(C6CCC(=O)NC6=O)C7=O)C5)C4)CC3)n2)cc1)c1cc(Cl)cc(C#N)c1 (centres unmarked) [Compound 62 trifluoroacetate, 3-chloro-5-(2-(4-((2-(4-(1-((1-(2-(2,6-dioxopiperidin-3-yl)-1,3-dioxoisoindolin-5-yl)pyrrolidin-3-yl)methyl)pyrrolidin-3-yl)piperazin-1-yl)pyrimidin-4-yl)methoxy)phenyl)propan-2-yl)benzonitrile] |
| 593 | CC(C)(c1ccc(OCc2ccnc(N3CCN(C4CCN(CC5CCN(c6ccc7c(c6)C(=O)N(C6CCC(=O)NC6=O)C7=O)CC5)C4)CC3)n2)cc1)c1cc(Cl)cc(C#N)c1 (centres unmarked) [Compound 63 trifluoroacetate, 3-chloro-5-(2-(4-((2-(4-(1-((1-(2-(2,6-dioxopiperidin-3-yl)-1,3-dioxoisoindolin-5-yl)piperidin-4-yl)methyl)pyrrolidin-3-yl)piperazin-1-yl)pyrimidin-4-yl)methoxy)phenyl)propan-2-yl)benzonitrile] |
| 637 | CC(C)(c1ccc(OCc2ccnc(N3CCC(N4CC(N5CCN(c6ccc7c(c6)C(=O)N(C6CCC(=O)NC6=O)C7=O)CC5)C4)CC3)n2)cc1)c1cc(Cl)cc(C#N)c1 (centres unmarked) [Compound 64 trifluoroacetate, 3-chloro-5-(2-(4-((2-(4-(3-(4-(2-(2,6-dioxopiperidin-3-yl)-1,3-dioxoisoindolin-5-yl)piperazin-1-yl)azetidin-1-yl)piperidin-1-yl)pyrimidin-4-yl)methoxy)phenyl)propan-2-yl)benzonitrile] |
| 759 | CC(C)(c1ccc(OCc2ccnc(N3CCC(N4CC(CN5CCN(c6cccc7c6C(=O)N(C6CCC(=O)NC6=O)C7=O)CC5)C4)CC3)n2)cc1)c1cc(Cl)cc(C#N)c1 (centres unmarked) [Compound 65 trifluoroacetate, 3-chloro-5-(2-(4-((2-(4-(3-((4-(2-(2,6-dioxopiperidin-3-yl)-1,3-dioxoisoindolin-4-yl)piperazin-1-yl)methyl)azetidin-1-yl)piperidin-1-yl)pyrimidin-4-yl)methoxy)phenyl)propan-2-yl)benzonitrile] |
| 584 | CC(C)(c1ccc(OCc2ccnc(N3CCN(CC4CCN(C5CC6(CCN(c7ccc8c(c7)C(=O)N(C7CCC(=O)NC7=O)C8=O)CC6)C5)C4)CC3)n2)cc1)c1cc(Cl)cc(C#N)c1 (centres unmarked) [Compound 66 trifluoroacetate, 3-chloro-5-(2-(4-((2-(4-((1-(7-(2-(2,6-dioxopiperidin-3-yl)-1,3-dioxoisoindolin-5-yl)-7-azaspiro[3.5]nonan-2-yl)pyrrolidin-3-yl)methyl)piperazin-1-yl)pyrimidin-4-yl)methoxy)phenyl)propan-2-yl)benzonitrile] |
| 643 | CC(C)(c1ccc(OCc2ccnc(N3CCN(CC4CCN(C5CCCN(c6ccc7c(c6)C(=O)N(C6CCC(=O)NC6=O)C7=O)C5)C4)CC3)n2)cc1)c1cc(Cl)cc(C#N)c1 (centres unmarked) [Compound 67 trifluoroacetate, 3-chloro-5-(2-(4-((2-(4-((1-(1-(2-(2,6-dioxopiperidin-3-yl)-1,3-dioxoisoindolin-5-yl)piperidin-3-yl)pyrrolidin-3-yl)methyl)piperazin-1-yl)pyrimidin-4-yl)methoxy)phenyl)propan-2-yl)benzonitrile] |
| 371 | CC(C)(c1ccc(OCc2ccnc(N3CC4(CCN(CC5CCN(c6ccc7c(c6)C(=O)N(C6CCC(=O)NC6=O)C7=O)CC5)CC4)C3)n2)cc1)c1cc(Cl)cc(C#N)c1 (centres unmarked) [Compound 69 trifluoroacetate, 3-chloro-5-(2-(4-((2-(7-((1-(2-(2,6-dioxopiperidin-3-yl)-1,3-dioxoisoindolin-5-yl)piperidin-4-yl)methyl)-2,7-diazaspiro[3.5]nonan-2-yl)pyrimidin-4-yl)methoxy)phenyl)propan-2-yl)benzonitrile] |
